Test systems include UACC-62 melanoma; MCF7 breast; IGROV1 ovarian; SW-620 colon; T-47D breast; HT29 colon; NCI-H460 lung; OVCAR-4 ovarian; NCI/ADR-RES ovarian; HL-60(TB) leukemia.
Common to all, as to experiment: growth of human tumour cells (NCI), 48 h

Several values for one entry are separate records, joined by “and”; a condition that tells them apart may be missing. Equal entries are not always repeated.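 Assay format: 96-well plates, 48-hour exposure. The concentration for 50% growth inhibition is given as GI50. TGI marks complete inhibition of growth.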

For `Nc1nc(SCc2ccccc2CCl)c2[nH]cnc2n1`, the GI50 in the assay on UACC-62 melanoma was 14.3 µM; in the assay on MCF7 breast it was 12.2 µM; with IGROV1 ovarian it was 14.5 µM; with SW-620 colon, 14.8 µM; in the assay on T-47D breast, 15.6 µM; in the assay with HT29 colon it was 17.1 µM. Besides, the values for the GI50 in the assay on NCI-H460 lung, in the assay on OVCAR-4 ovarian and in the assay on NCI/ADR-RES ovarian were 15.2 µM, 13.2 µM and 20.9 µM, respectively. Moreover, the TGI came out at 30.1 µM with UACC-62 melanoma; 28.4 µM in the assay on MCF7 breast; 47.9 µM with IGROV1 ovarian; 29.2 µM in the assay on SW-620 colon; 52.3 µM in the assay on T-47D breast; 35.6 µM in the assay with HT29 colon. Moreover, the values for the TGI in the assay on NCI-H460 lung, in the assay on OVCAR-4 ovarian and in the assay with NCI/ADR-RES ovarian were 30.9 µM, 37.3 µM and 67.7 µM, respectively.

Regarding `Nc1ccc(CC[C@H]2CCC/C=C/[C@@H]3C[C@H](O)C[C@H]3[C@H](O)/C=C/C(=O)O2)cc1`, the GI50 in the assay with UACC-62 melanoma was 0.0488 µM; in the assay with IGROV1 ovarian it was 0.0367 µM; in the assay with SW-620 colon it was 0.0329 µM; in the assay with HL-60(TB) leukemia it was 0.0535 µM; with T-47D breast, 0.0751 µM; in the assay on HT29 colon it was 0.0336 µM. Further, the values for the GI50 with NCI-H460 lung, with OVCAR-4 ovarian and in the assay on NCI/ADR-RES ovarian were 0.043 µM, 0.0339 µM and 0.0376 µM, respectively. Besides, the TGI in the assay with UACC-62 melanoma was 14.1 µM; in the assay with IGROV1 ovarian it was 0.175 µM; in the assay with SW-620 colon, 0.203 µM; with HL-60(TB) leukemia it was 1.55 µM; with T-47D breast, above 100 µM; with HT29 colon, 0.577 µM. Moreover, the figures for the TGI in the assay with NCI-H460 lung and in the assay with OVCAR-4 ovarian were above 100 µM and 2.73 µM, respectively.

Take `Cc1cc(N2CCC(N3CCCC3)CC2)nc(/N=C(\N)Nc2ccc(Cl)c(Cl)c2)n1`: the GI50 with UACC-62 melanoma is 1.9 µM; in the assay with MCF7 breast, 1.29 µM; with IGROV1 ovarian, 2.14 µM; in the assay with SW-620 colon, 1.57 µM; in the assay on T-47D breast, 1.92 µM; in the assay on HT29 colon, 1.85 µM. Moreover, the GI50 in the assay with NCI-H460 lung was 1.89 µM; in the assay with OVCAR-4 ovarian, 2.02 µM; in the assay with NCI/ADR-RES ovarian, 2.58 µM. The TGI in the assay with UACC-62 melanoma was 3.6 µM; in the assay on MCF7 breast, 2.69 µM; with IGROV1 ovarian it was 5.11 µM; in the assay with SW-620 colon, 3.24 µM; in the assay on T-47D breast, 3.59 µM; with HT29 colon, 3.87 µM. For the same molecule, the TGI came out at 3.67 µM in the assay with NCI-H460 lung, 3.99 µM in the assay on OVCAR-4 ovarian and 7.66 µM with NCI/ADR-RES ovarian.

Consider `Clc1ccc(C=Nc2ccc(-c3nc4ccccc4[nH]3)cc2)cc1`, for which the GI50 in the assay on UACC-62 melanoma is above 100 µM; in the assay with MCF7 breast, above 100 µM; in the assay with IGROV1 ovarian it was above 100 µM; in the assay on SW-620 colon it was above 100 µM; in the assay with T-47D breast it was 55.1 µM; with HT29 colon it was above 100 µM. The GI50 in the assay on NCI-H460 lung, in the assay with OVCAR-4 ovarian and with NCI/ADR-RES ovarian was above 100 µM throughout. For the same molecule, the TGI in the assay on UACC-62 melanoma, in the assay on MCF7 breast, in the assay on IGROV1 ovarian, in the assay on SW-620 colon, with T-47D breast and in the assay with HT29 colon was above 100 µM each time. Besides, the TGI in the assay on NCI-H460 lung, in the assay with OVCAR-4 ovarian and in the assay with NCI/ADR-RES ovarian was above 100 µM in each case.

Take `CCN(CC)CCOC(COc1cc(C)cc(C)c1)COc1cc(C)cc(C)c1`: the GI50 is 1.74 µM in the assay on UACC-62 melanoma; 2.17 µM in the assay with MCF7 breast; 1.59 µM in the assay on SW-620 colon; 1.94 µM with HL-60(TB) leukemia; 2.34 µM in the assay with T-47D breast; 2.33 µM in the assay on OVCAR-4 ovarian. The GI50 in the assay on NCI/ADR-RES ovarian was 3.34 µM. Moreover, the TGI came to 4.61 µM in the assay on UACC-62 melanoma; 5.33 µM in the assay on MCF7 breast; 4.63 µM in the assay on SW-620 colon; 4.48 µM in the assay on HL-60(TB) leukemia; 6.83 µM in the assay on T-47D breast; 13.7 µM with OVCAR-4 ovarian. The TGI in the assay on NCI/ADR-RES ovarian amounted to 14.6 µM.

As for `C=CCC(N[C@@H](CO)c1ccccc1)c1ccc2ccccc2n1` (stereo partly drawn), the GI50 is above 100 µM with UACC-62 melanoma; 29.9 µM in the assay with IGROV1 ovarian; above 100 µM with SW-620 colon; 12.3 µM with HL-60(TB) leukemia; 61.1 µM with T-47D breast; above 100 µM with HT29 colon. The GI50 with OVCAR-4 ovarian and in the assay on NCI/ADR-RES ovarian was above 100 µM throughout. Moreover, the TGI in the assay with UACC-62 melanoma was above 100 µM; with IGROV1 ovarian, above 100 µM; in the assay with SW-620 colon it was above 100 µM; with HL-60(TB) leukemia, 51.5 µM; in the assay with T-47D breast it was above 100 µM; in the assay on HT29 colon, above 100 µM. Also, the TGI in the assay with OVCAR-4 ovarian and in the assay on NCI/ADR-RES ovarian was above 100 µM each time.

With `O=C(/C=C/c1ccc(O)c(O)c1)N1CCN(c2ccc(Cl)cc2)CC1`, the GI50 with UACC-62 melanoma was 6.36 µM; in the assay on MCF7 breast, 6.08 µM; in the assay on IGROV1 ovarian, 4.5 µM; with SW-620 colon, 7.28 µM; in the assay on T-47D breast, 5.57 µM; in the assay on HT29 colon it was 13.1 µM. Moreover, the values for the GI50 in the assay with NCI-H460 lung, in the assay on OVCAR-4 ovarian and in the assay on NCI/ADR-RES ovarian were 4.79 µM, 3.48 µM and 4.61 µM, respectively. Further, the TGI in the assay on UACC-62 melanoma turned out to be 23.3 µM; in the assay with MCF7 breast, 25 µM; in the assay on IGROV1 ovarian, 80.5 µM; in the assay on SW-620 colon it was 81.4 µM; in the assay with T-47D breast, 77 µM; in the assay on HT29 colon it was 32 µM. In addition, the TGI was 21.5 µM in the assay with NCI-H460 lung, 39.5 µM in the assay with OVCAR-4 ovarian and 32.9 µM in the assay on NCI/ADR-RES ovarian.

In the case of `COC(=O)[C@@]12OC[C@]34[C@H]([C@@H](O)[C@@H]1O)[C@@]1(C)CC(=O)C(O)=C(C)[C@@H]1C[C@H]3OC(=O)[C@H](OC(=O)/C=C(\C)C(C)C)[C@@H]24`, the TGI in the assay with UACC-62 melanoma is 0.0131 µM and 0.023 µM; with MCF7 breast, 0.021 µM and 0.0264 µM; in the assay with IGROV1 ovarian, 0.0153 µM and 0.059 µM; with HL-60(TB) leukemia, 0.00583 µM; in the assay with T-47D breast it was 0.0581 µM; in the assay on HT29 colon, 0.0161 µM and 0.0718 µM. The TGI with NCI-H460 lung is 0.00567 µM and 0.0435 µM; in the assay on OVCAR-4 ovarian it was 0.017 µM and 0.0225 µM. Also, the GI50 with OVCAR-4 ovarian was 0.00334 µM.

For `COc1cc(C2CC(c3ccccc3)=NN2C=O)ccc1Oc1ccnc2cc(Cl)ccc12` (stereo not drawn), the GI50 was 6.76 µM in the assay on UACC-62 melanoma; 5.7 µM with MCF7 breast; 35 µM in the assay with IGROV1 ovarian; above 100 µM with SW-620 colon; 10.3 µM with T-47D breast; above 100 µM with HT29 colon. In addition, the GI50 in the assay on NCI-H460 lung is 18.5 µM; in the assay with OVCAR-4 ovarian it was 4.17 µM; in the assay on NCI/ADR-RES ovarian, 3.23 µM. The TGI in the assay on UACC-62 melanoma is above 100 µM; in the assay with MCF7 breast it was above 100 µM; in the assay on IGROV1 ovarian, above 100 µM; in the assay on SW-620 colon, above 100 µM; with T-47D breast, 39.7 µM; with HT29 colon, above 100 µM. In addition, the TGI with NCI-H460 lung was above 100 µM; in the assay with OVCAR-4 ovarian, 34 µM; with NCI/ADR-RES ovarian it was above 100 µM.

As for `CC(=O)c1cc2c(N)c(C(=O)Nc3cccc4ccccc34)sc2nc1C`, the GI50 with UACC-62 melanoma is 1.12 µM; with MCF7 breast, 1.42 µM; in the assay on IGROV1 ovarian, 2.92 µM; with SW-620 colon it was 1.55 µM; with HL-60(TB) leukemia it was 1.36 µM; in the assay with T-47D breast it was 1.6 µM. For the same molecule, the GI50 in the assay with HT29 colon was 1.74 µM; in the assay with NCI-H460 lung it was 1.61 µM; in the assay with OVCAR-4 ovarian, 6.06 µM. Besides, the TGI in the assay on UACC-62 melanoma is above 50 µM; with MCF7 breast it was above 50 µM; with IGROV1 ovarian, above 50 µM; in the assay with SW-620 colon, above 50 µM; with HL-60(TB) leukemia, 4.35 µM; with T-47D breast it was above 50 µM. Moreover, the TGI in the assay on HT29 colon, with NCI-H460 lung and with OVCAR-4 ovarian was above 50 µM in each case.

Consider `COC(=O)c1c(C)nc(C)c2c1C(=O)C(Br)=C(NCc1ccccc1)C2=O`, for which the GI50 is 1.41 µM in the assay on UACC-62 melanoma; 1.3 µM in the assay with MCF7 breast; 2.05 µM in the assay with IGROV1 ovarian; 3.39 µM in the assay with SW-620 colon; 2.26 µM in the assay with T-47D breast; 2.97 µM in the assay on HT29 colon. In addition, the figures for the GI50 in the assay with NCI-H460 lung, in the assay on OVCAR-4 ovarian and in the assay with NCI/ADR-RES ovarian were 2.94 µM, 1.55 µM and 2.83 µM, respectively. Moreover, the TGI in the assay on UACC-62 melanoma turned out to be 2.93 µM; in the assay with MCF7 breast it was 3.29 µM; with IGROV1 ovarian it was 5.45 µM; in the assay on SW-620 colon, 10.7 µM; in the assay with T-47D breast, 5 µM; in the assay with HT29 colon, 7.96 µM. For the same molecule, the TGI stood at 11.5 µM in the assay with NCI-H460 lung, 3 µM in the assay with OVCAR-4 ovarian and 8.16 µM in the assay with NCI/ADR-RES ovarian.

On to `C/C=C/C=C/c1cc2cc3c(c(O)c2c(=O)[nH]1)C1(CC3)C(O)=c2c(=O)c3c(=O)cc(OC)c(=O)c=3c(=O)c2=C1O` (stereo not drawn), for which the TGI in the assay on UACC-62 melanoma is 4.34 µM and 14.7 µM; with MCF7 breast, 0.215 µM; with IGROV1 ovarian, 10.6 µM and 15.3 µM; with SW-620 colon it was 1.47 µM and 13 µM; with HL-60(TB) leukemia it was 3.95 µM; with HT29 colon it was 1.37 µM and 13.5 µM. The TGI in the assay on NCI-H460 lung is 15.6 µM and 12 µM; with OVCAR-4 ovarian, 11.3 µM and 8.37 µM; in the assay on NCI/ADR-RES ovarian it was 37.9 µM. Further, the GI50 with HL-60(TB) leukemia is 0.669 µM; in the assay on NCI-H460 lung, 0.192 µM and 0.985 µM; in the assay on OVCAR-4 ovarian it was 0.311 µM and 1.08 µM.

As for `COC1C(OC(=O)c2ccc(C)[nH]2)C(O)C(Oc2ccc3c(O)c(NC(=O)c4ccc(O)c(CC=C(C)C)c4)c(=O)oc3c2Cl)OC1(C)C` (stereo not drawn), the TGI in the assay with UACC-62 melanoma was 32.9 µM; in the assay with MCF7 breast, 54.2 µM; in the assay with IGROV1 ovarian it was 39.2 µM; in the assay on SW-620 colon, 38 µM; with HL-60(TB) leukemia it was above 100 µM; with T-47D breast it was 36.5 µM. The TGI with HT29 colon worked out at 29.7 µM; with NCI-H460 lung it was 69.5 µM; in the assay on OVCAR-4 ovarian, 99.6 µM.
